Reference: paper PMC12118597 (Science Advances, 2025)
Values joined by “and” are separate entries in the source; they are usually repeats but may differ in a detail not shown here. Equal values may be shown once. Read-outs that look alike come from different tables or passages of the source.

Target: SARS-CoV-2 NSP3 macrodomain (Mac1) (Severe acute respiratory syndrome coronavirus 2, UniProt P0DTD1)
Assay type: binding
[1] = crystal soak 10 mM, P43 crystal form
[2] = crystal soak 10 mM; DMSO background map
[3] = crystal soak 10 mM; TFA/DMSO background map
[4] = DMSO background map; event 1; soak concentration 10 mM
[5] = DMSO background map; soak concentration 10 mM
[6] = PanDDA background density correction, 1-BDC
[7] = TRUE = ligand-bound crystal structure obtained (PDB code given)
[8] = crystal soak concentration 20 mM, DMSO background map
[9] = crystal soak concentration 20 mM, DMSO background map, event 1
[10] = crystal soak concentration 20 mM, P43 crystals
[11] = crystal soak, P43 crystals; soak concentration 10 mM
[12] = crystal soak, P43 crystals; soak concentration 10 mM for the hits shown
[13] = site of Mac1 occupied in the X-ray crystal structure (Adenosine or Distal)
[14] = PanDDA background density correction factor
[15] = TRUE = crystal structure with ligand obtained
[16] = ligand conformations modeled in the crystal structure
[17] = refined crystallographic occupancy
[18] = site of ligand in X-ray crystal structure
[19] = ligand-bound crystal structure obtained (TRUE)
[20] = site occupied in X-ray crystal structure
[21] = soak concentration 10 mM, DMSO background map
[22] = soak concentration 10 mM, P43 crystals
[23] = crystal soak 5 mM; DMSO background map

| SMILES | PanDDA run, overall: Hit [1] | PanDDA run, DMSO background map: 1-BDC [2] | PanDDA run, DMSO background map: Hit [2] | 2*(1-BDC) (%) (occupancy estimate from PanDDA) | Occupancy difference (refined_occupancy - 2*(1-BDC)) | 1-BDC [14] | X-ray crystal structure [15] | PanDDA run, overall: Modeled [1] | Total number of conformations [16] | Refined ligand occupancy (%) [17] [%] | Binding site [18] | other results |
| --- | --- | --- | --- | --- | --- | --- | --- | --- | --- | --- | --- | --- |
| O=C(O)C(F)(F)F.OC[C@@H](CCc1ccccc1)Nc1ncnc2[nH]ccc12 [AVI-3654] | TRUE | 0.14 | TRUE | – | – | – | – | – | – | – | – | PanDDA run, overall: Modeling comment [1]: Weak density for phenyl, not modeled; PanDDA run, TFA/DMSO background map: 1-BDC [3]: 0.07; PanDDA run, TFA/DMSO background map: Hit [3]: TRUE |
| CC(C)n1nnnc1SCc1c(C(=O)O)sc2cccc(F)c12 [AVI-291] | – | – | – | 68 | – | – | – | – | – | – | – | PanDDA run, DMSO background map: 1-BDC [4]: 0.25; PanDDA run, DMSO background map: Hit [5]: TRUE; 1-BDC [6]: 0.34; X-ray crystal structure [7]: TRUE; Hit (PanDDA run, DMSO background map) [8]: TRUE; Modeled (PanDDA run, DMSO background map) [8]: TRUE; 1-BDC (PanDDA run, DMSO background map) [9]: 0.34; Hit (PanDDA run, overall) [10]: TRUE; Modeled (PanDDA run, overall) [10]: TRUE; Modeling comment (PanDDA run, overall) [10]: Second ligand conformation, not modeled, DMSO x2; PanDDA run, overall: Modeling comment [11]: Duplicate, not modeled; PanDDA run, overall: Hit [12]: TRUE; Refined ligand occupancy (%) (crystallographic refinement): 68%; Binding site [13]: Adenosine |
| Cc1ccc(CC(CO)Nc2ncnc3[nH]ccc23)cc1C (stereo not shown) [AVI-3684] | TRUE | 0.15 | TRUE | 30 | 20 | 0.15 | TRUE | TRUE | 2 | 50 | Adenosine | – |
| Cn1cc(CC(CO)Nc2ncnc3[nH]ccc23)cn1 (stereo not shown) [AVI-3657] | TRUE | 0.15 | TRUE | 30 | 0 | 0.15 | TRUE | TRUE | 1 | 30 | Adenosine | – |
| OCC1CCCN1c1ncnc2[nH]ccc12 (stereo not shown) [AVI-3685] | TRUE | 0.25 | TRUE | 50 | 20 | 0.25 | – | TRUE | 1 | 70 | – | X-ray crystal structure [19]: TRUE; Binding site [20]: Adenosine |
| Cc1sc2ncnc(Sc3ccccc3C(=O)O)c2c1C [AVI-317] | – | – | – | 30 | 30 | 0.15 | – | – | 2 | 60 | – | X-ray crystal structure [7]: TRUE; Binding site [13]: Adenosine; PanDDA run, DMSO background map: 1-BDC [21]: 0.17 and 0.15; PanDDA run, DMSO background map: Hit [21]: TRUE; PanDDA run, DMSO background map: Modeled [21]: TRUE; PanDDA run, overall: Hit [22]: TRUE; PanDDA run, overall: Modeled [22]: TRUE; PanDDA run, overall: Modeling comment [22]: Duplicate, not modeled |
| OCC(Cc1nccs1)Nc1ncnc2[nH]ccc12 (stereo not shown) [AVI-3673] | TRUE | 0.19 | TRUE | 38 | 0 | 0.19 | TRUE | TRUE | 1 | 38 | Adenosine | – |
| O=C(O)C(F)(F)F.OCC(Cc1cccc(F)c1)Nc1ncnc2[nH]ccc12 (stereo not shown) [AVI-3706] | – | – | – | – | – | – | – | – | – | – | – | PanDDA run, overall: Modeling comment (crystal soak 10 mM): TFA only |
| CCC1(O)CCN(c2ncnc3[nH]ccc23)C1 (stereo not shown) [AVI-612] | – | – | – | 34 | 0 | 0.17 | TRUE | – | 1 | 34 | – | PanDDA run, overall: Hit (crystal soak 5 mM, P43 crystal form): TRUE; PanDDA run, DMSO background map: 1-BDC [23]: 0.17; PanDDA run, DMSO background map: Hit [23]: TRUE; Binding site (site of Mac1 occupied in the X-ray crystal structure): Adenosine |
| c1ccc(-n2nnnc2CSc2nnc(NC3CC3)s2)cc1 [AVI-286] | – | – | – | 22 | 0 | 0.11 | – | – | 1 | 22 | – | PanDDA run, DMSO background map: 1-BDC [4]: 0.11; PanDDA run, DMSO background map: Hit [5]: TRUE; PanDDA run, DMSO background map: Modeled [5]: TRUE; X-ray crystal structure [7]: TRUE; PanDDA run, overall: Modeled [11]: TRUE; PanDDA run, overall: Hit [12]: TRUE; Binding site [13]: Distal |
| O=C(O)C(F)(F)F.OC[C@@H]1CC2(CC2)CN1c1ncnc2[nH]ccc12 [AVI-3710] | TRUE | 0.26 | TRUE | 52 | 0 | 0.26 | – | – | 2 | 52 | – | PanDDA run, overall: Modeling comment (crystal soak 10 mM): Weak density for open state of Phe132 loop; X-ray crystal structure [19]: TRUE; Binding site [20]: Adenosine |
| OCC(CC1CCCO1)Nc1ncnc2[nH]ccc12 (stereo not shown) [AVI-3660] | TRUE | 0.23 | TRUE | 46 | 0 | 0.23 | TRUE | TRUE | 1 | 46 | Adenosine | – |
| CC(C)CCC(CO)Nc1ncnc2[nH]ccc12.O=C(O)C(F)(F)F (stereo not shown) [AVI-3668] | TRUE | 0.15 | TRUE | – | – | – | – | – | – | – | – | PanDDA run, overall: Modeling comment [1]: Weak density, not modeled; PanDDA run, TFA/DMSO background map: 1-BDC [3]: 0.09; PanDDA run, TFA/DMSO background map: Hit [3]: TRUE |
| OCC(Cc1ccccn1)Nc1ncnc2[nH]ccc12 (stereo not shown) [AVI-3696] | TRUE | 0.13 | TRUE | 26 | 14 | 0.13 | TRUE | TRUE | 2 | 40 | Adenosine | – |
| Cc1cc2c(=O)n(CCN3C(=O)c4ccccc4S3(=O)=O)nnc2s1 [AVI-341] | – | – | – | 36 | 14 | 0.18 | – | – | 1 | 50 | – | X-ray crystal structure [7]: TRUE; Hit (PanDDA run, DMSO background map) [8]: TRUE; 1-BDC (PanDDA run, DMSO background map) [9]: 0.19; Hit (PanDDA run, overall) [10]: TRUE; Modeling comment (PanDDA run, overall) [10]: Duplicate, not modeled; Binding site [13]: Adenosine; PanDDA run, DMSO background map: 1-BDC [21]: 0.18; PanDDA run, DMSO background map: Hit [21]: TRUE; PanDDA run, DMSO background map: Modeled [21]: TRUE; PanDDA run, overall: Hit [22]: TRUE; PanDDA run, overall: Modeled [22]: TRUE |
| Cc1ccccc1CC(CO)Nc1ncnc2[nH]ccc12 (stereo not shown) [AVI-3674] | TRUE | 0.19 | TRUE | 38 | 0 | 0.19 | TRUE | TRUE | 1 | 38 | Adenosine | – |
| OCC1CC2(CCCCC2)CN1c1ncnc2[nH]ccc12 (stereo not shown) [AVI-3727] | TRUE | 0.29 | TRUE | 58 | 0 | 0.29 | – | – | 1 | 58 | – | PanDDA run, overall: Modeling comment (crystal soak 10 mM): Distal site, weak density, not modeled; X-ray crystal structure [19]: TRUE; Binding site [20]: Adenosine |
| CN1CCN(c2ncnc3[nH]ccc23)C(CO)C1 (stereo not shown) [AVI-3721] | TRUE | 0.06 | TRUE | 12 | 0 | 0.06 | – | – | 2 | 12 | – | X-ray crystal structure [19]: TRUE; Binding site [20]: Adenosine |
| O=C(O)C(c1ccccc1)n1sc2ccccc2c1=O (stereo not shown) [AVI-288] | – | – | – | 74 | – | – | – | – | – | – | – | PanDDA run, DMSO background map: 1-BDC [4]: 0.26; PanDDA run, DMSO background map: Hit [5]: TRUE; 1-BDC [6]: 0.37; X-ray crystal structure [7]: TRUE; Hit (PanDDA run, DMSO background map) [8]: TRUE; Modeled (PanDDA run, DMSO background map) [8]: TRUE; 1-BDC (PanDDA run, DMSO background map) [9]: 0.37; Hit (PanDDA run, overall) [10]: TRUE; Modeled (PanDDA run, overall) [10]: TRUE; PanDDA run, overall: Modeling comment [11]: Duplicate, not modeled; PanDDA run, overall: Hit [12]: TRUE; Refined ligand occupancy (%) (crystallographic refinement): 74%; Binding site [13]: Adenosine |
